Entries after “also recorded” stand apart in the source; their conditions may differ.
What was measured:
Format in all cases: cell-based
[1] = test system: Bcr-Abl positive K562 cells; assay: MTT assay, growth inhibition / cellular cytotoxicity; settings: 24 h, ciclopirox 0 to 81 μM
Description: (§1) K562 cells were obtained from DSMZ (Bielefeld, Germany). HL-60 lines were kindly provided by Dr. Bühring (Tübingen, Germany). Both cell lines are cultured in RPMI 1640 medium (Gibco-BRL, Invitrogen, UK) containing 10% fetal calf serum (FCS) (Biochrom KG, Berlin, Germany). The cells are incubated at 37° C. in a humidified atmosphere with 5% CO2 in air.
(§2) K652 and HL-60 cells are plated into 96-well flat-bottomed microtiter plates (Becton Dickinson, Heidelberg, Germany) at 1.5×10^4 cells/well in 150 μl of their respective media.
(§3) All analyses are performed in triplicates. After 24 and 48 hours, the viable cells in each well are assayed for their ability to transform 3-(4,5-dimethylthiazol-2-yl)-2,5-diphenyltetrazolium bromide (MTT) into a purple formazan (Twentyman et al., Br. J. Haematol. 71, 19-24 (1989), Arnould et al., Anticancer Res. 10, 145-154 (1990)). Therefore, 10 μl of a 10 mg/ml MTT solution is added in each well. After an incubation period of 2 hours at 37° C., the purple formazan is released by adding lysis buffer (15% sodium dodecyl sulfate [SDS] in DMF/H2O 1:1, pH 4.5) and shaking overnight in the dark. The absorbance of the samples is measured on an enzyme-linked immunosorbent assay (ELISA) plate reader (Dynatech MR7000) at 570 nm. […]

[2] = test system: Bcr-Abl-negative HL-60 cells; assay: as above; settings: ciclopirox 0 to 81 μM
Description: as §1, §2, §3

[3] = test system: Bcr-Abl-positive K562 cells; assay: Apoptosis, flow cytometric evaluation of hypodiploid nuclei; settings: ciclopirox 0 to 81 μM
Description: (§4) K562 and HL-60 (2×10^5 cells per well) are cultured in 24-well tissue plates under the conditions described above.
(§5) Briefly, nuclei are prepared by lysing cells in a hypotonic lysis buffer (1% sodium citrate, 0.1% Trition X-100, 50 μg propidium iodide per ml) and subsequently analyzed by flow cytometry. Nuclei to the left of the 2N peak containing hypodiploid DNA are considered as apoptotic. Flow cytometric analysis are performed on a FACScalibur (Becton Dickinson) using […] analysis software.
(§6) Apoptosis was also measured after 24 h by flow cytometric evaluation of hypodiploid nuclei as described in above Methods.

[4] = test system: Bcr-Abl negative HL-60 cells; assay: as above; settings: ciclopirox 0 to 81 μM
Description: as §4, §5, §6

Cc1cc(C2CCCCC2)n(O)c(=O)c1 [ciclopirox, 6-cyclohexyl-1-hydroxy-4-methyl-2(1H)-pyridinone]
growth inhibition / cell viability, single agent [1]: inhibits cell viability; also recorded: anti-proliferative effect was detected | cell viability, single agent [2]: inhibits cell viability | induction of apoptosis, single agent [3]: induces apoptosis | induction of apoptosis, single agent [4]: induces apoptosis
